Assay results taken from BindingDB's records for PubMed 9454790 (University of Arizona, 1998).

Tests used:
[1] = target: T1, Muscarinic acetylcholine receptor M2 (Homo sapiens, UniProt P08172)
T1 sequence (P08172 whole entry): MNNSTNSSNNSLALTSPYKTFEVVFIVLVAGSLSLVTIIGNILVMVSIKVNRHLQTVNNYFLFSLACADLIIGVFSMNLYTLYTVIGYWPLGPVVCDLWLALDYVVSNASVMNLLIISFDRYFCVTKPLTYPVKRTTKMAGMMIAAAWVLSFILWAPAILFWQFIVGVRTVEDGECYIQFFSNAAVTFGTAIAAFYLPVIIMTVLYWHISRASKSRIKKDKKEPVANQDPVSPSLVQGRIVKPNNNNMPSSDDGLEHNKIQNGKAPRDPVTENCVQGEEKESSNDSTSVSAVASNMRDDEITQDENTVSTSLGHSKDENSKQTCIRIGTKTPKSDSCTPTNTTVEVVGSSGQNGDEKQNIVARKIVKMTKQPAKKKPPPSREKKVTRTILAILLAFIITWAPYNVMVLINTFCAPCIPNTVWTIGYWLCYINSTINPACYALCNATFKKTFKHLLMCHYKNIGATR

[2] = target: T2, Muscarinic acetylcholine receptor M2 (Rattus norvegicus, UniProt P10980)
T2 sequence (P10980 whole entry): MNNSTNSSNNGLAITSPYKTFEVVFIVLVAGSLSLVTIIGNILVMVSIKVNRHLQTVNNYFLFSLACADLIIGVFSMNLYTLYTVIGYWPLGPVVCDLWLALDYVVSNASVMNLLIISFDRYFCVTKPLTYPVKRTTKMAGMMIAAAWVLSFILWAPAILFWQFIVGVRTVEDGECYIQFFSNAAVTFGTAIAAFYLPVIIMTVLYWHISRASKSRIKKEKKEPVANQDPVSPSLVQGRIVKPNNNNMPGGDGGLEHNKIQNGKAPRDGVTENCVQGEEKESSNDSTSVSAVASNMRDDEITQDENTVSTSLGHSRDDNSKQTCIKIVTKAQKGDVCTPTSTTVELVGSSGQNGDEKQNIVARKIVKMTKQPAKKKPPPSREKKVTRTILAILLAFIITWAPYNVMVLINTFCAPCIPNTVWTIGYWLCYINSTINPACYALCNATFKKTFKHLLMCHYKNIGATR

Structure (SMILES) | Ki [1] [nM] | Ki [2] [nM]
CN(C)CCCN1c2ccccc2CCc2ccccc21 | 0.13 | –
CC[N+](CC)(CC)CCOc1cccc(OCC[N+](CC)(CC)CC)c1OCC[N+](CC)(CC)CC | – | 2610
O=C1CCCN1CC#CCN1CCCC1 [1-[4-(2-oxo-pyrrolidin-1-yl)-but-2-ynyl]-pyrrolidinium] | 235 | 290
CCN(CC)CC1CCCCN1CC(=O)N1c2ccccc2C(=O)Nc2cccnc21 (configuration not stated) [(AF-DX 116) 11-[2-(2-Diethylaminomethyl-piperidin-1-yl)-acetyl]-5,11-dihydro-benzo[e]pyrido[3,2-b][1,4]diazepin-6-one] | 67 | 50
COc1cc2c3cc1Oc1cc(ccc1O)C[C@H]1c4c(cc(OC)c(O)c4Oc4ccc(cc4)C[C@@H]3N(C)CC2)CC[N+]1(C)C [CAS_57-94-3] | 97 | –
C[N+]1(C)CCO[C@@](O)(c2ccc(-c3ccc([C@@]4(O)C[N+](C)(C)CCO4)cc3)cc2)C1 [CAS_312-45-8] | 11 | –
C[N+](C)(C)CCCCCCCCCC[N+](C)(C)C [Decamethonium Iodide] | 25 | –
C[C@H]1OC(=O)C2C[C@H]3CCCC[C@@H]3[C@@H](/C=C/[C@@H]3CCC[C@H](C)N3C)C21 (some centres not stated) [HIMBACINE] | 12 | 14
C=C[C@@H]1CN2CC[C@H]1C[C@@H]2[C@H](O)c1ccnc2ccc(OC)cc12 [Quinidine] | 7.5 | –
